From paper PMC11284788, “NN1213 – A Potent, Long-Acting, and Selective Analog of Human Amylin” (Journal of Medicinal Chemistry, 2024)

Experiments:
[1] = test system: cAMY3R; test: Whole-cell competition binding, cAMY3R; conditions: IC50 for the CTR divided by that of the AMYR, canine receptors
[2] = biological target: hAMY1R (Homo sapiens, UniProt O60894+P30988); test: Whole-cell competition binding, hAMY1R; design: expressed in transfected cells; host or cells: BHK tk-ts 13, transient co-transfection (FuGENE 6); conditions: IC50 for the CTR divided by that of the AMYR, human receptors
[3] = biological target: T1, rAMY3R (Rattus norvegicus, UniProt P32214+Q9JJ73); test: Species-specific cAMP assay, rAMY3R; conditions: ratio of cAMP EC50 values, rat receptors
T1 sequence (P32214 25-479 isoform P32214-2 limits assumed): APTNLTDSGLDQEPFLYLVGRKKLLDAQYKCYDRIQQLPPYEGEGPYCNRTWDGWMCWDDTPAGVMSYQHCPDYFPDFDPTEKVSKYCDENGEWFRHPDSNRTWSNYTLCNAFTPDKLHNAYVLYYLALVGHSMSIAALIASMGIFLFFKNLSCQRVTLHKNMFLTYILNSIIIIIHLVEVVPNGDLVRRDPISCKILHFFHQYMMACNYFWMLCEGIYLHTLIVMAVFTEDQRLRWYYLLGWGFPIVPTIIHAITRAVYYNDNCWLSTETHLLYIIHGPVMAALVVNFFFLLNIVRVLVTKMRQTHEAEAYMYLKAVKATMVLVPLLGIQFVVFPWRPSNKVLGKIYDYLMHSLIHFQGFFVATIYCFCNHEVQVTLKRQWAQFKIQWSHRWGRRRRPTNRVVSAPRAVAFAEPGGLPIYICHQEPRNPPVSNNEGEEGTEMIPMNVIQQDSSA
T1 sequence (Q9JJ73 23-147 partner): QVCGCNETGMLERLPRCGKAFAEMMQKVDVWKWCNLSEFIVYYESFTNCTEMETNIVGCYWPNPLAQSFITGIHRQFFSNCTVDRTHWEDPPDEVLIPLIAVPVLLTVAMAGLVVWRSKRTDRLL

Sequence of hAMY1R (P30988 25-474): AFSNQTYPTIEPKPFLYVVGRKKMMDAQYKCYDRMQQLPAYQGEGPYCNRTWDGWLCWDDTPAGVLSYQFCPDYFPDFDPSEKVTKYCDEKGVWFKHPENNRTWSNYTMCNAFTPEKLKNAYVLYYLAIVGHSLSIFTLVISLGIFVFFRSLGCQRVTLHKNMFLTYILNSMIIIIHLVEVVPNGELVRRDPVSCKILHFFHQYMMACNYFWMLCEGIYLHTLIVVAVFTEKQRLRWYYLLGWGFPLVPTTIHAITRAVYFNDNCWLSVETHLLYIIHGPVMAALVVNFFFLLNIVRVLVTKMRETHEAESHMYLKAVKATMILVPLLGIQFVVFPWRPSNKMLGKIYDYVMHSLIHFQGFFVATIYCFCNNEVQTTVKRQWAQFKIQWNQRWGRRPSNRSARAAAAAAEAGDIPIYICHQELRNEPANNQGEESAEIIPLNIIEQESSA
Sequence of hAMY1R (O60894 27-148 partner): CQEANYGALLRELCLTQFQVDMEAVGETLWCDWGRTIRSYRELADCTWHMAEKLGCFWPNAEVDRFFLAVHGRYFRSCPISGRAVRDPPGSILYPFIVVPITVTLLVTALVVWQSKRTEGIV

## CC[C@H](C)[C@H](NC(=O)[C@H](C)NC(=O)CNC(=O)[C@H](Cc1ccccc1)NC(=O)[C@H](CC(N)=O)NC(=O)[C@@H]1CCCN1C(=O)[C@H](CO)NC(=O)[C@H](CO)NC(=O)[C@H](Cc1c[nH]cn1)NC(=O)[C@H](CCCNC(=N)N)NC(=O)[C@H](CC(C)C)NC(=O)[C@H](Cc1ccccc1)NC(=O)[C@H](CC(=O)O)NC(=O)[C@H](C)NC(=O)[C@H](CC(C)C)NC(=O)[C@H](CCCNC(=N)N)NC(=O)[C@H](CCC(N)=O)NC(=O)[C@@H](NC(=O)[C@H](C)NC(=O)[C@@H]1CSSC[C@H](NC(=O)[C@@H](N)CCCCNC(=O)CC[C@H](NC(=O)CC[C@H](NC(=O)CCCCCCCCCCCCCCCCCCC(=O)O)C(=O)O)C(=O)O)C(=O)N[C@@H](CC(N)=O)C(=O)N[C@@H]([C@@H](C)O)C(=O)N[C@@H](C)C(=O)N[C@@H]([C@@H](C)O)C(=O)N1)[C@@H](C)O)C(=O)N1CCC[C@H]1C(=O)N[C@@H](CO)C(=O)N[C@@H](CO)C(=O)N[C@H](C(=O)N[C@@H](CC(N)=O)C(=O)N[C@H](C(=O)NCC(=O)N[C@@H](CO)C(=O)N[C@@H](CCCNC(=N)N)C(=O)N[C@H](C(=O)N[C@@H](Cc1ccc(O)cc1)C(N)=O)[C@@H](C)O)C(C)C)[C@@H](C)O [NN1213]
[1]
  Ratio CTR/AMY3R (canine, binding): 40
[2]
  Ratio CTR/AMY1R (human, binding): 120
[3]
  Ratio CTR/AMY3R (rat, functional): 144
